In patent publication US20100120762A1, “Triazine derivatives as inhibitors of phosphodiesterases” (WYETH, priority 2008, published 2010) one finds IC50 data, which are given here for 26 compounds.

Experiment [1] deals with T1, PDE10A1 (AB 020593) (Homo sapiens, UniProt Q9Y233).
T1 construct: made in house; host or cells: baculovirus / SF21 insect cells (gene synthesized by Entelechon GmbH)
The experiment is described as follows: Inhibition of recombinant PDE10A (baculovirus/SF21 system). The format is biochemical. Conditions: recombinant cytosolic PDE10A, 0.1 μM [3H]-cAMP, 37° C., 30 minutes, SPA; read-out: PDE10A IC50. The method in brief:
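Cytosolic PDE10A1 expressed in SF21 cells via baculovirus, incubated with 0.1 μM [3H]-cAMP in 50 mM Tris-HCl/5 mM MgCl2, pH 7.4, 30 min at 37 °C. SPA-bead scintillation read-out, with enzyme-free wells as background. IC50 from Hill plot, 2-parameter model.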

The target of experiment [2] is T2, PDE2A (NM002599) (Homo sapiens, UniProt O00408).
T2 construct: made in house; host or cells: baculovirus / SF21 insect cells
The experiment can be described thus: Inhibition of recombinant PDE2A (expressed in baculovirus/SF21-cells). In kind it is biochemical. Particulars: recombinant PDE2A, 0.5 μM [3H]-cAMP, 1000 nM cGMP, 37° C., 30 minutes, SPA; read-out: PDE2A IC50. The essentials:
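Human PDE2A membrane fraction from baculovirus-infected SF21 cells; 0.5 μM [3H]-cAMP with 1000 nM cGMP as activator in 50 mM Tris-HCl/5 mM MgCl2 pH 7.4, 30 min at 37° C, SPA read-out. Non-specific activity measured without cGMP; IC50 by 2-parameter Hill fit.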

pIC50: −log10 of the molar value.

T2 sequence (O00408 whole entry): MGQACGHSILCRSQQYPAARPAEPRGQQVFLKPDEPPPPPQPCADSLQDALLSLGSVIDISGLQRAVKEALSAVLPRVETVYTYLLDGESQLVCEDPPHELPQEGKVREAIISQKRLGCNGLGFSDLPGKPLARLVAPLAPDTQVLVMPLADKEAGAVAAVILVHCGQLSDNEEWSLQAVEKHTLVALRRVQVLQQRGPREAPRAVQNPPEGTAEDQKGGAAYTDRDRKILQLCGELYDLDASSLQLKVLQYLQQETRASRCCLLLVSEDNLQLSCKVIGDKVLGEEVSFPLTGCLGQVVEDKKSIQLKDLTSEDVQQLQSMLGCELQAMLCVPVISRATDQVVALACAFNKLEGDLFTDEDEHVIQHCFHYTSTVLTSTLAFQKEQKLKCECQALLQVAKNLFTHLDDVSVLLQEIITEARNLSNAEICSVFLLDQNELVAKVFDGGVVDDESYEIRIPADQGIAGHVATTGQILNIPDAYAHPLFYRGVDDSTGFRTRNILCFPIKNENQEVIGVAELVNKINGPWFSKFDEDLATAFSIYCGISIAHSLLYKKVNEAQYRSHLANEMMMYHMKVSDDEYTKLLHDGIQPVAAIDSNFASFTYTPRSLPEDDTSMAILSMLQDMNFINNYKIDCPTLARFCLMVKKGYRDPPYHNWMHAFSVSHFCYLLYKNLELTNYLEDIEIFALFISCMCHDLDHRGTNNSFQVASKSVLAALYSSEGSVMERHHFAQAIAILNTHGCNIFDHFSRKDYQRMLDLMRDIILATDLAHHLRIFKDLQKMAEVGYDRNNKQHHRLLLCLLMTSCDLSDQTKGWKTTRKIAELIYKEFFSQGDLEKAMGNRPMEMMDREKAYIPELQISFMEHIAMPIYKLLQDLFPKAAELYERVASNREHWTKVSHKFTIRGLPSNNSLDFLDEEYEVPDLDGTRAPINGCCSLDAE
T1 sequence (Q9Y233 other isoform, or with tags, fused parts or gaps): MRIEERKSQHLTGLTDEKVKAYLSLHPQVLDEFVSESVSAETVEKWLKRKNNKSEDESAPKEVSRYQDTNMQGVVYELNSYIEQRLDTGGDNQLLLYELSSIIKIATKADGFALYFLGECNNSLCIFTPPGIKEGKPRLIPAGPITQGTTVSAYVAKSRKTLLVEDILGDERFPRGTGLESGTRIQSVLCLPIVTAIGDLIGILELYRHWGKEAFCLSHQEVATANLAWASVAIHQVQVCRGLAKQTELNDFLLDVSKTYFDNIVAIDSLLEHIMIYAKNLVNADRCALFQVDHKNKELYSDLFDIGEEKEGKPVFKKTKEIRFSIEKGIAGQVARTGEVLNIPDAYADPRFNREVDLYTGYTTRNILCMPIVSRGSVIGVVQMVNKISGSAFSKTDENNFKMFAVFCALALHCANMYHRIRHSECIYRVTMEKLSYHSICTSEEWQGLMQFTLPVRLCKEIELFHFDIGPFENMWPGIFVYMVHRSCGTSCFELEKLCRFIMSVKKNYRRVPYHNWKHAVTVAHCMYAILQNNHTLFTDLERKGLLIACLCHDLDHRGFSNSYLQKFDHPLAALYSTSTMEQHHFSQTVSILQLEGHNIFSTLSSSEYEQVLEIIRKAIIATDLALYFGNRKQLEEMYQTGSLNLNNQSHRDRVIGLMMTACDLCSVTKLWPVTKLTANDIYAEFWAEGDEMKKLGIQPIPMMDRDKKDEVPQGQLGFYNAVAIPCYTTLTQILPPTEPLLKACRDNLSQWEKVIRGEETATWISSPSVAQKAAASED

Take `COc1ccc2nnc3c(C)nc(-c4ccc(C)cc4F)n3c2n1` [Example 69, 9-(2-fluoro-4-methylphenyl)-2-methoxy-7-methylimidazo[5,1-c]pyrido[2,3-e][1,2,4]triazine]: the pIC50 in experiment [1] was 7.30; in experiment [2], 7.32.

On to `COc1ccc2nnc3c(C)nc(-c4cc(F)cc(C(N)=O)c4)n3c2n1` [Example 82, 3-fluoro-5-(2-methoxy-7-methylimidazo[5,1-c]pyrido[2,3-e][1,2,4]triazin-9-yl)benzamide], for which the pIC50 in experiment [1] is 6.85; in experiment [2] it was 6.55.

With `COc1ccc2nnc3c(C)nc(-c4cnn(C)c4)n3c2n1` [Example 79, 2-methoxy-7-methyl-9-(1-methyl-1H-pyrazol-4-yl)imidazo[5,1-c]pyrido[2,3-e][1,2,4]triazine], the results for the pIC50 in experiment [1] and in experiment [2] were 6.44 and 6.28, respectively.

With `COc1ccc2nnc3c(C)nc(-c4cncc(F)c4)n3c2n1` [Example 43, 9-(5-fluoropyridin-3-yl)-2-methoxy-7-methylimidazo[5,1-c]pyrido[2,3-e][1,2,4]triazine], the pIC50 is 6.44 in experiment [1] and 6.57 in experiment [2].

Consider `COc1ccc(F)c(-c2nc(C)c3nnc4ccc(OC)nc4n23)c1` [Example 19, 9-(2-fluoro-5-methoxyphenyl)-2-methoxy-7-methylimidazo[5,1-c]pyrido[2,3-e][1,2,4]triazine], for which the values for the negative-log IC50 (pIC50) in experiment [1] and in experiment [2] were 8.01 and 8.52, respectively.

`COc1ccc(Cl)c(-c2nc(C)c3nnc4ccc(OC)nc4n23)c1` [Example 59, 9-(2-chloro-5-methoxyphenyl)-2-methoxy-7-methylimidazo[5,1-c]pyrido[2,3-e][1,2,4]triazine]: the pIC50 is 7.39 in experiment [1] and 8.66 in experiment [2].

For `COc1ccc2nnc3c(C)nc(-c4ccncc4C)n3c2n1` [Example 64, 2-methoxy-7-methyl-9-(3-methylpyridin-4-yl)imidazo[5,1-c]pyrido[2,3-e][1,2,4]triazine], the pIC50 was 7.07 in experiment [1] and 7.25 in experiment [2].

In the case of `COc1ccc2nnc3c(C)nc(-c4cccnc4)n3c2n1` [Example 55, 2-methoxy-7-methyl-9-pyridin-3-ylimidazo[5,1-c]pyrido[2,3-e][1,2,4]triazine], the pIC50 in experiment [1] was 6.17; in experiment [2], 6.84.

`COc1ccc2nnc3c(C)nc(-c4ccc(C(N)=O)c(Cl)c4)n3c2n1` [Example 84, 2-chloro-4-(2-methoxy-7-methylimidazo[5,1-c]pyrido[2,3-e][1,2,4]triazin-9-yl)benzamide]: the pIC50 was 6.80 in experiment [1] and 6.37 in experiment [2].

For `COc1ccc2nnc3c(C)nc(-c4cc(C#N)ccc4Cl)n3c2n1` [Example 87, 4-chloro-3-(2-methoxy-7-methylimidazo[5,1-c]pyrido[2,3-e][1,2,4]triazin-9-yl)benzonitrile], the pIC50 in experiment [1] is 6.38; in experiment [2] it was 7.53.

With `COc1ccc2nnc3c(C)nc(-c4ccncc4)n3c2n1` [Example 44, 2-methoxy-7-methyl-9-pyridin-4-ylimidazo[5,1-c]pyrido[2,3-e][1,2,4]triazine], the pIC50 is 6.46 in experiment [1] and 6.32 in experiment [2].

In the case of `COc1ccc2nnc3c(C)nc(-c4cccnc4OC)n3c2n1` [Example 32, 2-methoxy-9-(2-methoxypyridin-3-yl)-7-methylimidazo[5,1-c]pyrido[2,3-e][1,2,4]triazine], the pIC50 in experiment [1] is 6.68; in experiment [2] it was 6.73.

`COc1ccc(C)c(-c2nc(C)c3nnc4ccc(OC)nc4n23)c1` [Example 100, 2-methoxy-9-(5-methoxy-2-methylphenyl)-7-methylimidazo[5,1-c]pyrido[2,3-e][1,2,4]triazine]: the values for the pIC50 in experiment [1] and in experiment [2] were 7.25 and 8.26, respectively.

For `COc1ccc2nnc3c(C)nc(-c4cnccc4C)n3c2n1` [Example 51, 2-methoxy-7-methyl-9-(4-methylpyridin-3-yl)imidazo[5,1-c]pyrido[2,3-e][1,2,4]triazine], the pIC50 was 6.41 in experiment [1] and 6.85 in experiment [2].

For the compound `CCOc1cc(F)cc(-c2nc(C)c3nnc4ccc(OC)nc4n23)c1` [Example 29, 9-(3-ethoxy-5-fluorophenyl)-2-methoxy-7-methylimidazo[5,1-c]pyrido[2,3-e][1,2,4]triazine], the pIC50 in experiment [1] was 6.47; in experiment [2] it was 6.42.

Regarding `COc1ccc2nnc3c(C)nc(-c4c(C)nn(C)c4C)n3c2n1` [Example 65, 2-methoxy-7-methyl-9-(1,3,5-trimethyl-1H-pyrazol-4-yl)imidazo[5,1-c]pyrido[2,3-e][1,2,4]triazine], the pIC50 in experiment [1] is 6.92; in experiment [2], 7.64.

Take `COc1ccc2nnc3c(C)nc(-c4ccccc4OC)n3c2n1` [Example 70, 2-methoxy-9-(2-methoxyphenyl)-7-methylimidazo[5,1-c]pyrido[2,3-e][1,2,4]triazine]: the results for the pIC50 in experiment [1] and in experiment [2] were 7.08 and 6.97, respectively.

Consider `COc1ccc2nnc3c(C)nc(-c4cccc(OCC(F)(F)F)c4)n3c2n1` [Example 30, 2-methoxy-7-methyl-9-[3-(2,2,2-trifluoroethoxy)phenyl]imidazo[5,1-c]pyrido[2,3-e][1,2,4]triazine], for which the pIC50 in experiment [1] was 6.47; in experiment [2], 7.81.

Regarding `COc1ccc2nnc3c(C)nc(-c4cccc(F)c4C)n3c2n1` [Example 56, 9-(3-fluoro-2-methylphenyl)-2-methoxy-7-methylimidazo[5,1-c]pyrido[2,3-e][1,2,4]triazine], the pIC50 in experiment [1] was 7.45; in experiment [2], 7.67.

As for `COc1ccc2nnc3c(C)nc(-c4cc(F)ccc4C)n3c2n1` [Example 73, 9-(5-fluoro-2-methylphenyl)-2-methoxy-7-methylimidazo[5,1-c]pyrido[2,3-e][1,2,4]triazine], the figures for the pIC50 in experiment [1] and in experiment [2] were 7.42 and 7.61, respectively.

With “8-Methoxy-3-methyl-1-(2-methyl-2H-pyrazol-3-yl)-imidazo[5,1-c]pyrido[2,3-e][1,2,4]triazine [Example 108]”, the pIC50 in experiment [1] is 6.11; in experiment [2], 6.54.

In the case of “4-(2-methoxy-7-methylimidazo[5,1-c]pyrido[2,3-e][1,2,4]triazin-9-yl)-3-methylisoxazole [Example 68]”, the figures for the pIC50 in experiment [1] and in experiment [2] were 5.99 and 6.73, respectively.

For the compound `COc1ccc2nnc3c(C)nc(-c4cccc(OC(F)(F)F)c4)n3c2n1` [Example 25, 2-methoxy-7-methyl-9-[3-(trifluoromethoxy)phenyl]imidazo[5,1-c]pyrido[2,3-e][1,2,4]triazine], the pIC50 in experiment [1] is < 6.00; in experiment [2], 6.46.

Consider `COc1ccc2nnc3c(C)nc(-c4ccc(F)c(OC)c4)n3c2n1` [Example 23, 9-(4-fluoro-3-methoxyphenyl)-2-methoxy-7-methylimidazo[5,1-c]pyrido[2,3-e][1,2,4]triazine], for which the pIC50 in experiment [1] was 7.46; in experiment [2] it was 7.58.

Regarding `COc1ccc2nnc3c(C)nc(-c4cnc(F)c(C)c4)n3c2n1` [Example 67, 9-(6-fluoro-5-methylpyridin-3-yl)-2-methoxy-7-methylimidazo[5,1-c]pyrido[2,3-e][1,2,4]triazine], the negative-log IC50 (pIC50) in experiment [1] was 6.65; in experiment [2], 7.25.

As for `CCOc1ccc(Cl)c(-c2nc(C)c3nnc4ccc(OC)nc4n23)c1` [Example 74, 9-(2-chloro-5-ethoxyphenyl)-2-methoxy-7-methylimidazo[5,1-c]pyrido[2,3-e][1,2,4]triazine], the pIC50 is 7.06 in experiment [1] and 8.00 in experiment [2].
